Data as given in PubChem BioAssay (NCI).
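Test compounds were applied to cells in 96-well plates for 48 hours at 5 doses. At the TGI there is no net growth.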

What was measured:
Test in all cases: growth of human tumour cells (NCI), 48 h
PC-3 prostate = tested on: PC-3 prostate
SK-MEL-2 melanoma = tested on: SK-MEL-2 melanoma
SN12C renal = tested on: SN12C renal
OVCAR-8 ovarian = tested on: OVCAR-8 ovarian
MOLT-4 leukemia = tested on: MOLT-4 leukemia
SNB-75 CNS = tested on: SNB-75 CNS
BT-549 breast = tested on: BT-549 breast
NCI-H23 lung = tested on: NCI-H23 lung
UACC-62 melanoma = tested on: UACC-62 melanoma
LOX IMVI melanoma = tested on: LOX IMVI melanoma
CCRF-CEM leukemia = tested on: CCRF-CEM leukemia
NCI-H460 lung = tested on: NCI-H460 lung
DU-145 prostate = tested on: DU-145 prostate
NCI-H226 lung = tested on: NCI-H226 lung
SK-OV-3 ovarian = tested on: SK-OV-3 ovarian
HCT-15 colon = tested on: HCT-15 colon
HCT-116 colon = tested on: HCT-116 colon
NCI-H522 lung = tested on: NCI-H522 lung
OVCAR-5 ovarian = tested on: OVCAR-5 ovarian
HL-60(TB) leukemia = tested on: HL-60(TB) leukemia
MALME-3M melanoma = tested on: MALME-3M melanoma
COLO 205 colon = tested on: COLO 205 colon
SNB-19 CNS = tested on: SNB-19 CNS
UO-31 renal = tested on: UO-31 renal
U251 CNS = tested on: U251 CNS
MDA-MB-231 breast = tested on: MDA-MB-231 breast
HCC-2998 colon = tested on: HCC-2998 colon
ACHN renal = tested on: ACHN renal
MDA-N = tested on: MDA-N
NCI/ADR-RES ovarian = tested on: NCI/ADR-RES ovarian
TK-10 renal = tested on: TK-10 renal
SR leukemia = tested on: SR leukemia
RPMI-8226 leukemia = tested on: RPMI-8226 leukemia
SK-MEL-28 melanoma = tested on: SK-MEL-28 melanoma
A549 NSCLC = tested on: A549 NSCLC
HT29 colon = tested on: HT29 colon
HS 578T breast = tested on: HS 578T breast
HOP-62 NSCLC = tested on: HOP-62 NSCLC
OVCAR-4 ovarian = tested on: OVCAR-4 ovarian
UACC-257 melanoma = tested on: UACC-257 melanoma
KM12 colon = tested on: KM12 colon
HOP-92 NSCLC = tested on: HOP-92 NSCLC
SF-295 CNS = tested on: SF-295 CNS
CAKI-1 renal = tested on: CAKI-1 renal
MDA-MB-435 = tested on: MDA-MB-435
IGROV1 ovarian = tested on: IGROV1 ovarian
MCF7 breast = tested on: MCF7 breast
EKVX NSCLC = tested on: EKVX NSCLC
SW-620 colon = tested on: SW-620 colon
M14 melanoma = tested on: M14 melanoma
OVCAR-3 ovarian = tested on: OVCAR-3 ovarian
786-0 renal = tested on: 786-0 renal
SF-268 CNS = tested on: SF-268 CNS
SF-539 CNS = tested on: SF-539 CNS
RXF 393 renal = tested on: RXF 393 renal
T-47D breast = tested on: T-47D breast
A498 renal = tested on: A498 renal
K-562 leukemia = tested on: K-562 leukemia
SK-MEL-5 melanoma = tested on: SK-MEL-5 melanoma

O=C1C=C(Sc2ccccc2)c2nccc3c2c1nc1ccccc13
TGI (PC-3 prostate): 26.2 µM | TGI (SK-MEL-2 melanoma): 27.3 µM | TGI (SN12C renal): 32.2 µM | TGI (OVCAR-8 ovarian): 37.6 µM | TGI (MOLT-4 leukemia): 23.5 µM | TGI (SNB-75 CNS): > 100 µM | TGI (BT-549 breast): 31.4 µM | TGI (NCI-H23 lung): 73.2 µM | TGI (UACC-62 melanoma): 29.2 µM | TGI (LOX IMVI melanoma): 28.6 µM | TGI (CCRF-CEM leukemia): 12.3 µM | TGI (NCI-H460 lung): 84.5 µM | TGI (DU-145 prostate): > 100 µM | TGI (NCI-H226 lung): > 100 µM | TGI (SK-OV-3 ovarian): > 100 µM | TGI (HCT-15 colon): 26 µM | TGI (HCT-116 colon): 30.3 µM | TGI (NCI-H522 lung): 15.8 µM | TGI (OVCAR-5 ovarian): > 100 µM | TGI (HL-60(TB) leukemia): 4.29 µM | TGI (MALME-3M melanoma): 30 µM | TGI (COLO 205 colon): 31.5 µM | TGI (SNB-19 CNS): > 100 µM | TGI (UO-31 renal): 27.3 µM | TGI (U251 CNS): 33.6 µM | TGI (MDA-MB-231 breast): 38 µM | TGI (HCC-2998 colon): 37.8 µM | TGI (ACHN renal): 54.8 µM | TGI (MDA-N): 33.3 µM | TGI (NCI/ADR-RES ovarian): > 100 µM | TGI (TK-10 renal): > 100 µM | TGI (SR leukemia): 25.5 µM | TGI (RPMI-8226 leukemia): > 100 µM | TGI (SK-MEL-28 melanoma): 38.8 µM | TGI (A549 NSCLC): > 100 µM | TGI (HT29 colon): 26.8 µM | TGI (HS 578T breast): 46.5 µM | TGI (HOP-62 NSCLC): 32.2 µM | TGI (OVCAR-4 ovarian): 31.4 µM | TGI (UACC-257 melanoma): 30.6 µM | TGI (KM12 colon): 51.6 µM | TGI (HOP-92 NSCLC): 42.3 µM | TGI (SF-295 CNS): > 100 µM | TGI (CAKI-1 renal): > 100 µM | TGI (MDA-MB-435): 31.2 µM | TGI (IGROV1 ovarian): 23.9 µM | TGI (MCF7 breast): 28.7 µM | TGI (EKVX NSCLC): 41 µM | TGI (SW-620 colon): 29.7 µM | TGI (M14 melanoma): 31.7 µM | TGI (OVCAR-3 ovarian): 19.7 µM | TGI (786-0 renal): 49.6 µM | TGI (SF-268 CNS): 26.7 µM | TGI (SF-539 CNS): 31.1 µM

N#Cc1c(Cl)cccc1Oc1ccc(S(=O)(=O)/N=C(\NN)Nc2ccc(Cl)cc2)cc1
TGI (PC-3 prostate): 80.8 µM | TGI (SK-MEL-2 melanoma): 46.5 µM | TGI (SN12C renal): 64 µM | TGI (RXF 393 renal): 47.1 µM | TGI (OVCAR-8 ovarian): > 100 µM | TGI (MOLT-4 leukemia): 34.4 µM | TGI (SNB-75 CNS): 54.7 µM | TGI (T-47D breast): 48.1 µM | TGI (BT-549 breast): 67.8 µM | TGI (NCI-H23 lung): 65.6 µM | TGI (UACC-62 melanoma): 38.8 µM | TGI (LOX IMVI melanoma): 31.4 µM | TGI (A498 renal): > 100 µM | TGI (NCI-H460 lung): 43.7 µM | TGI (DU-145 prostate): 86.9 µM | TGI (NCI-H226 lung): 60.9 µM | TGI (SK-OV-3 ovarian): > 100 µM | TGI (HCT-15 colon): > 100 µM | TGI (HCT-116 colon): 37.8 µM | TGI (OVCAR-5 ovarian): 94.5 µM | TGI (HL-60(TB) leukemia): 47.7 µM | TGI (COLO 205 colon): 29.6 µM | TGI (SNB-19 CNS): > 100 µM | TGI (UO-31 renal): 91.5 µM | TGI (U251 CNS): > 100 µM | TGI (MDA-MB-231 breast): 67.2 µM | TGI (ACHN renal): > 100 µM | TGI (MDA-N): 66.4 µM | TGI (NCI/ADR-RES ovarian): > 100 µM | TGI (TK-10 renal): 79.6 µM | TGI (RPMI-8226 leukemia): 59.3 µM | TGI (SK-MEL-28 melanoma): > 100 µM | TGI (A549 NSCLC): > 100 µM | TGI (HT29 colon): 96.2 µM | TGI (HOP-62 NSCLC): 59.6 µM | TGI (OVCAR-4 ovarian): 71 µM | TGI (K-562 leukemia): > 100 µM | TGI (UACC-257 melanoma): 72.3 µM | TGI (KM12 colon): 42.7 µM | TGI (HOP-92 NSCLC): 54 µM | TGI (SF-295 CNS): 70.3 µM | TGI (CAKI-1 renal): > 100 µM | TGI (SK-MEL-5 melanoma): 31.3 µM | TGI (IGROV1 ovarian): 43.4 µM | TGI (MCF7 breast): > 100 µM | TGI (EKVX NSCLC): 68.3 µM | TGI (SW-620 colon): > 100 µM | TGI (M14 melanoma): 52.1 µM | TGI (OVCAR-3 ovarian): 40.2 µM | TGI (786-0 renal): 61.1 µM | TGI (SF-268 CNS): 48.9 µM | TGI (SF-539 CNS): 36.6 µM
